Experiments:
[1] = tested on: patients with cystic fibrosis; details: single inhalation, CF patients; cited from earlier work
[2] = tested on: mucoid CF clinical isolates of P. aeruginosa; details: elevated CO2 concentrations; titration with bicarbonate

N=C(N)NCCC[C@H](N)C(=O)O [L-arginine]
Exhaled NO [1]: significantly increased
FEV1 [1]: sustained improvement

O=C(O)O [bicarbonate]
Alginate expression [2]: suppressed

reduced glutathione [GSH]
Ability of P. aeruginosa to utilize nitrate, nitrite or nitric oxide for respiration to grow (P. aeruginosa; low oxygen conditions such as within biofilm): limits the ability of P. aeruginosa to utilize nitrate, nitrite or nitric oxide for respiration
Aerobic growth of P. aeruginosa (P. aeruginosa; nitrite and nitric oxide in the presence of GSH): inhibit aerobic growth of P. aeruginosa

Reference: US20190231686A1, “METHODS FOR TREATING CYSTIC FIBROSIS AND OTHER DISEASES AFFECTING MUCOSAL SURFACES” (priority 2016, published 2019)
